The text below walks through data of US9540702B2, “Stabilization of enzymes with stable coenzymes” (Roche Diabetes Care, Inc., priority 2009, dated 2017).

For assay [1], the target named is glucose dehydrogenase/NAD system (Bacillus subtilis, UniProt P12310). In words: Photometric glucose determination with test elements containing GlucDH, NAD, mediator and 2,18-phosphomolybdic acid. Conditions: glucose in the region of 800 mg/dl; test elements stored 11 weeks at room temperature. As to the method: Various test systems which each contained glucose dehydrogenase, NAD, a mediator and, where appropriate, an optical indicator, were measured photometrically and electrochemically in order to determine glucose.
glucose dehydrogenase/NAD system, sequence (P12310 whole entry): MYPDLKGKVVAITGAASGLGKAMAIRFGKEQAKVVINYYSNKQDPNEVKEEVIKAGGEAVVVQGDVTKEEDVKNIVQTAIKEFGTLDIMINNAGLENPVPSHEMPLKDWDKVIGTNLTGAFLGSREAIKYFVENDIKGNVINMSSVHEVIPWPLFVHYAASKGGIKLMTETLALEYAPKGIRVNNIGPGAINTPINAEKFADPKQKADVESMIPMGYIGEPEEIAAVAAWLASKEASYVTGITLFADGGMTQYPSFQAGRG
For photometric measurements four test elements which had each been stored for 11 weeks at room temperature and contained 2,18-phosphomolybdic acid in addition to glucose dehydrogenase, NAD and a mediator, were initially investigated at various glucose concentrations.
The kinetics of the conversion of glucose using the system glucose dehydrogenase, NAD, 1-(3-carboxypropoxy)-5-ethylphenazinium-trifluoromethane sulfonate and 2,18-phosphomolybdic acid at glucose concentrations in the range from 0 to 800 mg/dl is shown in FIG. 14.

Assay [2] deals with glucose dehydrogenase (GlucDH) (Bacillus subtilis, UniProt P12310). In words: Stability of glucose dehydrogenase with coenzyme in a liquid phase at 50° C. Type of assay: biochemical. The following applies: 10 mg/ml GlucDH, 12 mg/ml coenzyme, pH 8.5. As to the method:
FIGS. 9A and 9B are graphical illustrations of the stability of glucose dehydrogenase in the presence of NAD or cNAD in a liquid phase at 50° C. for a period of 4 days (FIG. 9A) or 14 days (FIG. 9B) with test conditions of 10 mg/ml GlucDH; 12 mg/ml NAD or cNAD; buffer: 0.1 M Tris, 1.2 M NaCl, pH 8.5; temperature 50° C.
After 95 hours at 50° C. the residual activity of glucose dehydrogenase in the presence of the native coenzyme NAD is […], whereas the residual activity of GlucDH in the presence of the artificial coenzyme cNAD is 75% (FIG. 9A). After 336 hours storage at 50° C. the residual activity of the enzyme stabilized with NAD is now only about 1%; a residual activity of still about 70% is observed for the enzyme stored in the presence of cNAD. The corresponding SDS gels also show a change in the GlucDH bands in the presence of the native coenzyme NAD: new bands are seen at higher molar masses and there is a shift in the 30 kDa band.

Assay [3] has as its target Glucose dehydrogenase mutant2 (Bacillus subtilis, UniProt P12310, A229V/A236S/E170K/Q252L). Description: Differential scanning calorimetry (DSC) of coenzyme binding. The following applies: Tris buffer, pH 8.0; versus absence of NAD (79.1° C.).
Assay [4] addresses T1, alcohol dehydrogenase (ADH) (Saccharomyces cerevisiae, UniProt P00330).
T1 sequence (P00330 1-348): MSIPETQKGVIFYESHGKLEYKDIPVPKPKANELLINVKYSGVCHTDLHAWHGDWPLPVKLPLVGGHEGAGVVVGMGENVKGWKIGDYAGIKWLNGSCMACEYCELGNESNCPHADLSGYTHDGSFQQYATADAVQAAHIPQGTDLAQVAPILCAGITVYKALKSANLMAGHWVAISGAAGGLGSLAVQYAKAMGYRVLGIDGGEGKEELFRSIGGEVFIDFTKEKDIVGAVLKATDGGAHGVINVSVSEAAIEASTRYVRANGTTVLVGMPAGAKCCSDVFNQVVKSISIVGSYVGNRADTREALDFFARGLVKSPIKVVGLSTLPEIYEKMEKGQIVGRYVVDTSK
In words: Storage of alcohol dehydrogenase detection solution with NAD or cNAD (Tables 1 and 2). Type of assay: biochemical, yeast. The following applies: 16 mmol/l coenzyme. As to the method: (§1) cNAD or NAD was added to a detection solution containing alcohol dehydrogenase. These mixtures were stored at 2-8° C. and at 35° C. Subsequently, the stability of alcohol dehydrogenase (ADH) was checked at regular intervals and the residual activity of the enzyme was determined.
If alcohol dehydrogenase is stored together with native NAD or with cNAD for several months at 2-8° C. in a refrigerator, then one observes in the case of […] a considerable decrease in enzyme activity over the entire storage period. Whereas the difference after 2 weeks storage is still slight, there is an approximately 20% higher residual activity of alcohol dehydrogenase after 12 months storage in the presence of 16 mM cNAD compared to a corresponding solution containing 16 mM NAD as the coenzyme.
Accordingly, the residual activity of alcohol dehydrogenase can be increased somewhat in samples that have been stored for 2 weeks at 2-8° C. by increasing the concentration of cNAD.

Assay [5] deals with T1, alcohol dehydrogenase (ADH). Description: Stability of alcohol dehydrogenase with coenzyme in a liquid phase at 35° C. The following applies: 65 hours at 35° C., 5 mg/ml ADH, 50 mg/ml coenzyme, pH 9.0. Type of assay: biochemical, yeast. As to the method:
FIG. 12 is a graphical illustration of the stability of alcohol dehydrogenase from yeast in the presence of NAD or cNAD in a liquid phase at 35° C. for a period of 65 hours with test conditions of 5 mg/ml ADH; 50 mg/ml NAD or cNAD; buffer: 75 mM Na4P2O7; glycine, pH 9.0; temperature 35° C.
as §1
The residual activity of alcohol dehydrogenase in the presence of the native coenzyme NAD is at about 6% after 65 hours at 35° C., whereas the residual activity of the enzyme in the presence of the artificial coenzyme cNAD is still at about 60%.

glucose dehydrogenase (GlucDH), sequence (P12310 whole entry): as the sequence (P12310 whole entry) above
Glucose dehydrogenase mutant2, sequence (P12310 whole entry E170K/A229V/A236S/Q252L): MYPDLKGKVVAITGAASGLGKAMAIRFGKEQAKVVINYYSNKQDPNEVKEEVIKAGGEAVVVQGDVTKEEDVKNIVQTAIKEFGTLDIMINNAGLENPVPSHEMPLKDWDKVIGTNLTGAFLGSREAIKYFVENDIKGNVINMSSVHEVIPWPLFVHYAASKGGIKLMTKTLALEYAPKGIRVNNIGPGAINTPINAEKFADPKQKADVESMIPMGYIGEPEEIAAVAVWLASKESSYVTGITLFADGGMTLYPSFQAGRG

As for `CC[n+]1c2ccccc2nc2c(OCCCC(=O)O)cccc21.O=S(=O)([O-])C(F)(F)F` [1-(3-carboxy-propoxy)-5-ethylphenazinium-trifluoromethane sulfonate], the “reflectance of the measured sample” value in assay [1] is on record as “about 20%”.

On to `NC(=O)c1ccc[n+]([C@@H]2O[C@H](COP(=O)([O-])OP(=O)(O)OC[C@H]3O[C@@H](n4cnc5c(N)ncnc54)[C@H](O)[C@@H]3O)[C@@H](O)[C@H]2O)c1` [NAD, nicotinamide adenine dinucleotide, reference compound], for which the “residual activity of glucose dehydrogenase” value in assay [2] (95 hours at 50° C.) was over 5%; in assay [2] (336 hours at 50° C.), “about 1%”. In addition, the “TM shift on binding of ligand” value in assay [3] is “more than 1.5 °C”. Moreover, the “ADH activity after 2 weeks at 2-8° C.” value in assay [4] (2 weeks at 2-8° C.) is reported as 96.9 % of initial value. Moreover, the “ADH activity after 3 months at 2-8° C.” value in assay [4] (3 months at 2-8° C.) is given as 92.1 % of initial value. In addition, in assay [4] (7.5 months at 2-8° C.), the “ADH activity after 7.5 months at 2-8° C.” value was 80.2 % of initial value. Also, the “ADH activity after 10 months at 2-8° C.” value in assay [4] (10 months at 2-8° C.) is 70.3 % of initial value. In addition, in assay [4] (12 months at 2-8° C.), the “ADH activity after 12 months at 2-8° C.” value is 60.5 % of initial value. The “ADH activity % of weighed amount (initial value)” value in assay [4] (initial value) is 85.2 % of weighed amount. Moreover, in assay [5], the “residual activity of alcohol dehydrogenase” value is “about 6%”.

For the compound `Cl.O=Nc1ccc(N(CO)CO)cc1` [[(4-nitroso-phenyl)imino]dimethanol hydrochloride], the “reflectance of the measured sample” value in assay [1] was “about 20%”.
